{
  "source": "patent US20120202822A1",
  "about": "“COMBINATION” (priority 2009, published 2012)",
  "experiment_in_all_cases": "Fixed Ratio Drug Combination Assay, cell proliferation (CellTiter Glo)",
  "type_in_all_cases": "cell-based, human",
  "key": {"[1]": {"system": "COLO320DM", "conditions": "72 hours; for IC50: Homo sapiens, COLO 320DM, read-out: gIC50", "description": "(§1) Combination drug tests with Compounds A and B were conducted using a panel of cell lines from human colon cancers (n=25) (Table 1). Cell lines were purchased commercially [from ATCC (Manassas, Va., USA) or DSMZ (Braunschweig, Germany)] and grown in RPMI-1640 supplemented with 2 mM glutamine, 1 mM sodium pyruvate and 10% fetal bovine serum and maintained at 37° C. and 5% CO2 in a humid incubator.\n(§2) The dilution design of the Fixed Ratio Drug Combination Assay can be seen in FIG. 1. First, the test compounds were prepared as 10 mM stocks in 100% dimethyl sulfoxide (DMSO). Further dilutions of the compounds were made with DMSO. The first test compound (designated as Compound A) is diluted horizontally in a 96 well microtiter plate in rows B-E using a 3-fold dilution series for 10 dilution points. A second test compound (designated as Compound B) is diluted horizontally in a separate 96 well microtiter plate in rows D-G using a 3-fold dilution series for 10 dilution points. The two compounds are combined using equal volumes from each drug plate into cell culture media. […] Compound A is individually titrated in rows B and C, while only Compound B is dosed in rows F and G of the plate. An additional 1:10 dilution of the drugs is performed in cell culture media prior to addition to the cells. Drug addition to the cells results in a further 1:2 dilution of drugs. The total dilution of the drug plate to the cells is […]. The final dosing concentration range for Compound B was 0.1-1000.0 nM and was 0.5-10000.0 nM for Compound A. The positive control consists of culture media with DMSO at 0.1% and cells and no drug. The negative control consists of culture media with DMSO at 0.1%. solution.\n(§3) Assays were performed in 96 well microtiter plates with appropriate seeding densities estimated from previous studies of each cell line. Following dosing, the cell lines are incubated at 37° C., 5% CO2 in humid air for 72 hours. Cell proliferation was measured using the CellTiter Glo (Promega Corporation, Madison, Wis., USA) reagent according to the manufacturer's protocol. The plates are treated with CellTiter Glo solution and are analyzed for RLU (relative light units) using a Molecular Devices SpectraMax M5 (Sunnyvale, Calif., USA) plate reader.\n(§4) Results are expressed as a percentage of the number of cells present at the time of compound addition value (T0) and plotted against compound(s) concentration. The percent intensity values were used in model 205 of the IDBS XLfit plug-in for Microsoft Excel to calculate gIC50 values using a 4 parameter logistical fit. Background correction is made by subtraction of values from wells containing no cells. The midpoint of the growth window (the gIC50) falls half way between the number of cells at the time of compound addition and the growth of control cells treated with DMSO at 72 hrs. The number of cells at time zero is divided from the intensity value at the bottom of the response curve (Ymin) to generate a measure for cell death (Ymin/T0). A value below 1 for Ymin/T0 indicates stronger potency with the treatment when compared to higher values. For duplicate assays, all response metrics are averaged for presentation.\n(§5) Three independent metrics were used to analyze the combinatorial effects on growth inhibition of Compound B and Compound A. • 1. Excess over Highest Single Agent (EOHSA)—One standard criterion for measuring drug combinatorial effects is analyzing the effects on cell growth inhibition in absolute terms. In this case, the combination of drugs is compared to the more responsive of the two individual treatments (single agent). For each combination experiment, the percent effect relative to the highest single agent for each dose along the curve is generated. This measure of “Excess of Highest Single Agent (EOHSA)” is one of the criteria used for evaluating synergy of drug combinations. […]"}, "[2]": {"system": "SW1417", "conditions": "72 hours; for IC50: Homo sapiens, read-out: gIC50", "description": "as §1, §2, §3, §4, §5"}, "[3]": {"system": "SW837", "conditions": "72 hours; for IC50: Homo sapiens, read-out: gIC50", "description": "as §1, §2, §3, §4, §5"}},
  "data": [
    {"smiles": "COc1ncc(-c2ccc3nccc(-c4ccnnc4)c3c2)cc1NS(=O)(=O)c1ccc(F)cc1F", "note": "[Compound B, 2,4-difluoro-N-{2-(methyloxy)-5-[4-(4-pyridazinyl)-6-quinolinyl]-3-pyridinyl}benzenesulfonamide]", "values": [
      {"measurement": "Ymin/T0", "setting": "[1]", "value": 1.5},
      {"measurement": "IC50", "setting": "[1]", "value": 4.7, "unit": "nM"},
      {"measurement": "Ymin/T0", "setting": "[2]", "value": 1.3},
      {"measurement": "IC50", "setting": "[2]", "value": 1.4, "unit": "nM"},
      {"measurement": "Ymin/T0", "setting": "[3]", "value": 0.8},
      {"measurement": "IC50", "setting": "[3]", "value": 6.4, "unit": "nM"}
    ]},
    {"smiles": "CC(C)(C)c1nc(-c2cccc(NS(=O)(=O)c3c(F)cccc3F)c2F)c(-c2ccnc(N)n2)s1", "note": "[Compound A, N-{3-[5-(2-amino-4-pyrimidinyl)-2-(1,1-dimethylethyl)-1,3-thiazol-4-yl]-2-fluorophenyl}-2,6-difluorobenzenesulfonamide]", "values": [
      {"measurement": "Ymin/T0", "setting": "[1]", "value": 4.9},
      {"measurement": "IC50", "setting": "[1]", "value": "> 10000", "unit": "nM"},
      {"measurement": "Ymin/T0", "setting": "[2]", "value": 1.1},
      {"measurement": "IC50", "setting": "[2]", "value": 246, "unit": "nM"},
      {"measurement": "Ymin/T0", "setting": "[3]", "value": 2.3},
      {"measurement": "IC50", "setting": "[3]", "value": "> 10000", "unit": "nM"}
    ]}
  ]
}
